# Measured values from patent US5840684A, “Glycopeptide antibiotic derivatives” (Eli Lilly and Company, priority 1995, dated 1998).
# Legend:
# [1] = system: Staphylococcus aureus S13E; assay type: cell-based
# Experimental: (§1) The MIC's were determined using a standard broth micro-dilution assay.
# [2] = system: Staphylococcus aureus SA1199B; assay type: cell-based
# Experimental: as §1
# [3] = system: Entercoccus faecium 180-1; assay: broth micro-dilution MIC; assay type: cell-based
# Experimental: as §1
# Entercoccus faecium 276 = assay: broth micro-dilution MIC; assay type: cell-based
# Experimental: as §1
# [4] = system: Staphylococcus aureus 489; assay: broth micro-dilution MIC; assay type: cell-based
# Experimental: as §1
# [5] = system: Staphylococcus aureus 491; assay: broth micro-dilution MIC; assay type: cell-based
# Experimental: as §1
# [6] = system: Staphylococcus aureus SA1199A; assay: broth micro-dilution MIC; assay type: cell-based
# Experimental: as §1
# [7] = system: Staphylococcus aureus SA1199; assay: broth micro-dilution MIC; assay type: cell-based
# Experimental: as §1
# [8] = system: Staphylococcus aureus X400; assay: broth micro-dilution MIC; assay type: cell-based
# Experimental: as §1
# [9] = system: Staphylococcus aureus X778; assay: broth micro-dilution MIC; assay type: cell-based
# Experimental: as §1
# [10] = system: Streptococcus pyogenes C203; assay: broth micro-dilution MIC; assay type: cell-based
# Experimental: as §1
# Entercoccus faecium 180 = assay: broth micro-dilution MIC; assay type: cell-based; details: Entercoccus faecium 180
# Experimental: (§2) The formula I compounds have in vitro and in vivo activity against Gram-positive pathogenic bacteria. The MIC's were determined using a standard broth micro-dilution assay.
# Entercoccus faecium 2041 = assay: broth micro-dilution MIC; assay type: cell-based; details: Entercoccus faecium 2041
# Experimental: as §2
# [11] = system: Enterococcus gallinarum 245; assay: broth micro-dilution MIC; assay type: cell-based; details: Enterococcus gallinarum 245
# Experimental: as §2
# [12] = system: Haemophilus influenzae RD; assay: broth micro-dilution MIC; assay type: cell-based; details: Haemophilus influenzae RD
# Experimental: as §2
# [13] = system: Staphylococcus haemolyticus 105; assay: broth micro-dilution MIC; assay type: cell-based
# Experimental: as §2
# [14] = system: Staphylococcus haemolyticus 415; assay: broth micro-dilution MIC; assay type: cell-based
# Experimental: as §2
# [15] = system: Streptococcus pneumoniae P1; assay: broth micro-dilution MIC; assay type: cell-based
# Experimental: as §2
# [16] = system: vancomycin-resistant enterococci; assay: broth micro-dilution, mean geometric MIC; assay type: cell-based, Enterococcus faecium and Enterococcus faecalis; details: enterococci, 24-hour incubation
# [17] = system: vancomycin-susceptible enterococci; assay: broth micro-dilution, mean geometric MIC; assay type: cell-based, Enterococcus faecium and Enterococcus faecalis; details: enterococci, 24-hour incubation
# [18] = system: Staphylococcus aureus 446; assay: broth micro-dilution MIC; assay type: cell-based
# Experimental: as §1
# [19] = system: Staphylococcus epidermidis 270; assay: broth micro-dilution MIC; assay type: cell-based
# Experimental: as §2
# [20] = system: Staphylococcus aureus 447; assay: broth micro-dilution MIC; assay type: cell-based
# Experimental: as §1
SMILES,MIC [1] [µg/mL],MIC [2] [µg/mL],MIC [3] [µg/mL],MIC (Entercoccus faecium 276) [µg/mL],MIC [4] [µg/mL],MIC [5] [µg/mL],MIC [6] [µg/mL],MIC [7] [µg/mL],MIC [8] [µg/mL],MIC [9] [µg/mL],MIC [10] [µg/mL],MIC (Entercoccus faecium 2041) [µg/mL],MIC [11] [µg/mL],MIC [12] [µg/mL],MIC [13] [µg/mL],MIC [14] [µg/mL],MIC [15] [µg/mL],"mean geometric MIC, Vancomycin Resistant Strains [16] [µg/mL]","mean geometric MIC, Vancomycin Sensitive Strains [17] [µg/mL]",MIC [18] [µg/mL],further results
CNC(CC(C)C)C(=O)NC1C(=O)NC(CC(N)=O)C(=O)NC2C(=O)NC3C(=O)NC(C(=O)NC(C(=O)O)c4cc(O)cc(O)c4-c4cc3ccc4O)C(OC3CC(C)(N)C(O)C(C)O3)c3ccc(c(Cl)c3)Oc3cc2cc(c3OC2OC(CO)C(O)C(O)C2OC2CC(C)(NCc3ccc(-c4ccc(C#N)cc4)cc3)C(O)C(C)O2)Oc2ccc(cc2Cl)C1O (stereo not shown) [Compound 231],≤ 0.06,≤ 0.06,≤ 0.06,≤ 0.06,≤ 0.06,≤ 0.06,≤ 0.06,≤ 0.06,≤ 0.06,≤ 0.06,≤ 0.06,≤ 0.06,0.5,32,≤ 0.06,0.5,≤ 0.06,1.7,0.11,,MIC (Entercoccus faecium 180): ≤ 0.06 µg/mL
CNC(CC(C)C)C(=O)NC1C(=O)NC(CC(N)=O)C(=O)NC2C(=O)NC3C(=O)NC(C(=O)NC(C(=O)O)c4cc(O)cc(O)c4-c4cc3ccc4O)C(OC3CC(C)(N)C(O)C(C)O3)c3ccc(c(Cl)c3)Oc3cc2cc(c3OC2OC(CO)C(O)C(O)C2OC2CC(C)(NCCCCCCCCOc3ccc(-c4ccccc4)cc3)C(O)C(C)O2)Oc2ccc(cc2Cl)C1O (stereo not shown) [Compound 201],8,,0.5,4,8,4,2,8,4,4,≤ 0.06,1,8,32,8,8,≤ 0.06,1.2,0.44,4,MIC (Entercoccus faecium 180): 0.5 µg/mL; MIC [19]: 4 µg/mL
CNC(CC(C)C)C(=O)NC1C(=O)NC(CC(N)=O)C(=O)NC2C(=O)NC3C(=O)NC(C(=O)NC(C(=O)O)c4cc(O)cc(O)c4-c4cc3ccc4O)C(OC3CC(C)(N)C(O)C(C)O3)c3ccc(c(Cl)c3)Oc3cc2cc(c3OC2OC(CO)C(O)C(O)C2OC2CC(C)(NCc3ccc4cc(C)ccc4c3)C(O)C(C)O2)Oc2ccc(cc2Cl)C1O (stereo not shown) [Compound 189],0.5,1,≤ 0.06,,1,≤ 0.06,≤ 0.06,0.5,,,≤ 0.06,≤ 0.06,1,32,1,1,≤ 0.06,2.4,0.10,0.5,MIC [20]: 0.5 µg/mL
CNC(CC(C)C)C(=O)NC1C(=O)NC(CC(N)=O)C(=O)NC2C(=O)NC3C(=O)NC(C(=O)NC(C(=O)O)c4cc(O)cc(O)c4-c4cc3ccc4O)C(OC3CC(C)(N)C(O)C(C)O3)c3ccc(c(Cl)c3)Oc3cc2cc(c3OC2OC(CO)C(O)C(O)C2OC2CC(C)(NCCCC3CCCC3)C(O)C(C)O2)Oc2ccc(cc2Cl)C1O (stereo not shown) [Compound 208],,0.5,≤ 0.06,,0.5,0.5,≤ 0.06,0.5,,,≤ 0.06,≤ 0.06,2,32,,2,≤ 0.06,2.8,0.17,1,MIC [20]: 1 µg/mL; MIC [19]: 0.5 µg/mL
